This passage reports DC50 and Dmax results from patent publication US20260317324A1, “BIFUNCTIONAL COMPOUNDS FOR DEGRADING BRAF VIA UBIQUITIN PROTEOSOME PATHWAY” (Nurix Therapeutics, Inc., priority 2023, published 2026).

Common to all, as to assay type: cell-based
Experiment [1] deals with T1, BRAF G466V (Homo sapiens, UniProt P15056, G466V).
T1 construct: Horizon Discovery (HCT-116 BRAF−/− cells); host or cells: HCT-116 BRAF−/− cells, clone 8, lentiviral transduction
The experiment in a line: BRAF HiBiT degradation assay, C-terminal HiBiT-tagged BRAF G466V overexpressed in HCT-116 BRAF−/− cells (clone 8), Nano-Glo HiBiT Lytic assay. In outline: (§1)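 We quantified degradation of the C-terminally HiBiT-tagged, overexpressed mutant by lytic luminescence, normalizing to DMSO-treated cells with wild-type HCT-116 background subtracted. Dose series ran from 1 μM to 0.01 nM at 0.2% DMSO. Observed Dmax is % degraded at maximal effect.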

For experiment [2], the target named is T2, BRAF G469A (Homo sapiens, UniProt P15056, G469A).
T2 construct: Horizon Discovery (HCT-116 BRAF−/− cells); host or cells: HCT-116 BRAF−/− cells, clone 34, lentiviral transduction
Put plainly: BRAF HiBiT degradation assay, C-terminal HiBiT-tagged BRAF G469A overexpressed in HCT-116 BRAF−/− cells (clone 34), Nano-Glo HiBiT Lytic assay. Summed up: as §1
On the technique in general: With HiBiT, luminescence reflects the tagged protein that the partner subunit can reach.

The target of experiment [3] is T3, BRAF V600E (Homo sapiens, UniProt P15056, V600E).
T3 construct: endogenous C-terminal HiBiT fusion tag on BRAF V600E allele; endogenous in cells; host or cells: A375 clone 1F10 (CRISPR-Cas9 knock-in of the HiBiT tag; parental A375 from ATCC)
The experiment in a line: BRAF HiBiT degradation assay, C-terminal HiBiT-tagged BRAF V600E A375 cells (clone 1F10), Nano-Glo HiBiT Lytic assay. The note with it: for Dmax: A-375. In outline:
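Steps: seed HiBiT-tagged A375 clone 1F10 cells; incubate 24 h, 37 °C, 5% CO2; add compound (11 half-log points from 1 μM, 0.2% DMSO); lyse with HiBiT detection reagent plus LgBiT for 10 min; read luminescence; fit % protein remaining against concentration.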

Experiment [4] concerns the target T4, BRAF D594G (Homo sapiens, UniProt P15056, D594G).
T4 construct: Horizon Discovery (HCT-116 BRAF−/− cells); host or cells: HCT-116 BRAF−/− cells, clone 63, lentiviral transduction
The experiment in a line: BRAF HiBiT degradation assay, C-terminal HiBiT-tagged BRAF D594G overexpressed in HCT-116 BRAF−/− cells (clone 63), Nano-Glo HiBiT Lytic assay. In outline: as §1

The mark [5] stands for this setting: BRAF G466V, DC50 at 50%: fitted conc. at Y=50.
Where [6] appears, read: HCT-116, BRAF G466V, percentage protein degraded at maximal compound effect relative to DMSO.
Setting [7] is: Class 2, BRAF G469A, DC50 at 50%: fitted conc. at Y=50.
Where [8] appears, read: HCT-116, Class 2, BRAF G469A, percentage protein degraded at maximal compound effect relative to DMSO.
[9] abbreviates: A375 (BRAF V600E), DC50 at 50%: fitted conc. at Y=50.
Where [10] appears, read: A375 (BRAF V600E), percentage protein degraded at maximal compound effect relative to DMSO.
Setting [11] is: BRAF D594G, DC50 at 50%: fitted conc. at Y=50.
Where [12] appears, read: HCT-116, BRAF D594G, percentage protein degraded at maximal compound effect relative to DMSO.
[13] abbreviates: BRAF G466V (Class 3), HCT-116 BRAF−/− cells, DC50 at 50% degradation.
Where [14] appears, read: BRAF G466V (Class 3), HCT-116 BRAF−/− cells, observed Dmax relative to DMSO control.
[15] abbreviates: BRAF G469A (Class 2), HCT-116 BRAF−/− cells, DC50 at 50% degradation.
[16] abbreviates: BRAF G469A (Class 2), HCT-116 BRAF−/− cells, observed Dmax relative to DMSO control.
Where [17] appears, read: A375 (BRAF V600E, Class 1), DC50 at 50% degradation.
Where [18] appears, read: A375 (BRAF V600E, Class 1), observed Dmax, % protein degraded relative to DMSO control.
Where [19] appears, read: BRAF D594G (Class 3), HCT-116 BRAF−/− cells, DC50 at 50% degradation.
[20] abbreviates: BRAF D594G (Class 3), HCT-116 BRAF−/− cells, observed Dmax relative to DMSO control.

T4 sequence (P15056 whole entry D594G): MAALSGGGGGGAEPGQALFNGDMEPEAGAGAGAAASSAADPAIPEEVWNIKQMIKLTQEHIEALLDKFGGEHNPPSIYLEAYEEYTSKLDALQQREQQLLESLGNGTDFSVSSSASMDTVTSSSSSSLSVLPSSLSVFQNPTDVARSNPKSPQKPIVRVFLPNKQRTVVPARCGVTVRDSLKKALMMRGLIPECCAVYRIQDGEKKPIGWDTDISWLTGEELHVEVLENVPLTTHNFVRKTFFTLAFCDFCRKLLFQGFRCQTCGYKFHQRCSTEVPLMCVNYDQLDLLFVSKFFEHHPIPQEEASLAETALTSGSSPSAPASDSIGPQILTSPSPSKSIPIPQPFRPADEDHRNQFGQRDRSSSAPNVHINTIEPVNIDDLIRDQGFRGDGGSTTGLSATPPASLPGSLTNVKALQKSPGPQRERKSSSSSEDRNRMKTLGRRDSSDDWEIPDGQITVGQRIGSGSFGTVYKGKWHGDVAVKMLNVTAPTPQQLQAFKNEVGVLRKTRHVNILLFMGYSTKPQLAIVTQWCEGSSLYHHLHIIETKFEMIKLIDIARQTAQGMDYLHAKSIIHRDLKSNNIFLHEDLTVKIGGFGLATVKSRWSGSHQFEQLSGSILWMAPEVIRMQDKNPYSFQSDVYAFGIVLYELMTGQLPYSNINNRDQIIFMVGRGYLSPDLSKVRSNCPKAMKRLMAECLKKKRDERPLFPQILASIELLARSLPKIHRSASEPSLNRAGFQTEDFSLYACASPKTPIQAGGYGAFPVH
T2 sequence (P15056 whole entry G469A): as the sequence (P15056 whole entry D594G) above, with G469A, G594D counted along it
T1 sequence (P15056 whole entry G466V): as the sequence (P15056 whole entry D594G) above, with G466V, G594D counted along it
T3 sequence (P15056 whole entry V600E, the tested form may be a part): as the sequence (P15056 whole entry D594G) above, with G594D, V600E counted along it

By DC50 is commonly meant the concentration at which degradation of the target reaches its halfway point. A word on the Dmax: it is the greatest extent of degradation seen. A low value points to a partial loss of target. For `CCCS(=O)(=O)Nc1cccc(-c2nc(CCC3CCN(C(=O)C4CCN(C(=O)C5CCN(c6ccc(C7CCC(=O)NC7=O)cn6)CC5)CC4)CC3)sc2-c2ccnc(N)n2)c1F` (racemic) [Compound 205, Rac-N-{3-[5-(2-aminopyrimidin-4-yl)-2-(2-{1-[1-(1-{5-[(3R)-2,6-dioxopiperidin-3-yl]pyridin-2-yl}piperidine-4-carbonyl)piperidine-4-carbonyl]piperidin-4-yl}ethyl)-1,3-thiazol-4-yl]-2-fluorophenyl}propane-1-sulfonamide], the half-maximal degradation concentration (DC50) was above 500 nM in experiment [1] (setting [5]), above 500 nM in experiment [2] (setting [7]), below 10 nM in experiment [3] (setting [9]) and above 500 nM in experiment [4] (setting [11]). For the same compound, the greatest degradation seen (Dmax) in experiment [1] (setting [6]) was 30 to 70%; in experiment [2] (setting [8]), 30 to 70%; in experiment [3] (setting [10]), above 70%; in experiment [4] (setting [12]) it was 30 to 70%.
For the compound `O=C1CCC(c2ccc(N3CCC(CN4CCN(c5ccc(-n6cc(-c7cc(Cl)cc(NS(=O)(=O)N8CC[C@@H](F)C8)c7F)c(-c7ccncc7)n6)nc5)CC4)CC3)nc2)C(=O)N1` (mixture of isomers) [Compound 296, (3R)—N-{5-chloro-3-[1-(5-{4-[(1-{5-[(3RS)-2,6-dioxopiperidin-3-yl]pyridin-2-yl}piperidin-4-yl)methyl]piperazin-1-yl}pyridin-2-yl)-3-(pyridin-4-yl)-1H-pyrazol-4-yl]-2-fluorophenyl}-3-fluoropyrrolidine-1-sulfonamide], the DC50 in experiment [1] (setting [13]), in experiment [2] (setting [15]), in experiment [3] (setting [17]) and in experiment [4] (setting [19]) was below 10 nM throughout. Moreover, the Dmax in experiment [1] (setting [14]), in experiment [2] (setting [16]), in experiment [3] (setting [18]) and in experiment [4] (setting [20]) was above 70% each time.
`CCCS(=O)(=O)Nc1cccc(-c2cn(C3CCN(C(=O)C4(C)CCN(C(=O)C5CCN(c6ccc(C7CCC(=O)NC7=O)cn6)CC5)CC4)CC3)nc2-c2ccncc2)c1F` (racemic) [Compound 8, Rac-N-[3-(1-{1-[1-(1-{5-[(3R)-2,6-dioxopiperidin-3-yl]pyridin-2-yl}piperidine-4-carbonyl)-4-methylpiperidine-4-carbonyl]piperidin-4-yl}-3-(pyridin-4-yl)-1H-pyrazol-4-yl)-2-fluorophenyl]propane-1-sulfonamide]: the half-maximal degradation concentration (DC50) is above 500 nM in experiment [1] (setting [5]), above 500 nM in experiment [2] (setting [7]), 10 to 50 nM in experiment [3] (setting [9]) and above 500 nM in experiment [4] (setting [11]). Further, the greatest degradation seen (Dmax) in experiment [1] (setting [6]) is 30 to 70%; in experiment [2] (setting [8]) it was 30 to 70%; in experiment [3] (setting [10]), above 70%; in experiment [4] (setting [12]) it was 30 to 70%.
With `CCN(C)S(=O)(=O)Nc1cc(Cl)cc(-c2cn(-c3ccc(N4CCN(CC5CCN(c6ccc(N7CCC(=O)NC7=O)cc6)CC5)CC4)cn3)nc2-c2ccncc2)c1F` [Compound 311, 1-(4-{4-[(4-{6-[4-(5-chloro-3-{[ethyl(methyl)sulfamoyl]amino}-2-fluorophenyl)-3-(pyridin-4-yl)-1H-pyrazol-1-yl]pyridin-3-yl}piperazin-1-yl)methyl]piperidin-1-yl}phenyl)-1,3-diazinane-2,4-dione], the half-maximal degradation concentration (DC50) in experiment [1] (setting [13]) was 50 to 500 nM; in experiment [2] (setting [15]), above 500 nM; in experiment [3] (setting [17]), 10 to 50 nM; in experiment [4] (setting [19]), 10 to 50 nM. Besides, the Dmax in experiment [1] (setting [14]) was 30 to 70%; in experiment [2] (setting [16]), 30 to 70%; in experiment [3] (setting [18]) it was above 70%; in experiment [4] (setting [20]), 30 to 70%.
As for `CCN(C)S(=O)(=O)Nc1cc(Cl)cc(-c2cn(-c3ccc(N4CCN(CC5CCN(c6ccc(N7CCC(=O)NC7=O)cc6)CC5)CC4)cc3)nc2-c2ccncc2)c1F` [Compound 307, 1-(4-{4-[(4-{4-[4-(5-chloro-3-{[ethyl(methyl)sulfamoyl]amino}-2-fluorophenyl)-3-(pyridin-4-yl)-1H-pyrazol-1-yl]phenyl}piperazin-1-yl)methyl]piperidin-1-yl}phenyl)-1,3-diazinane-2,4-dione], the 50% degradation concentration (DC50) in experiment [1] (setting [13]) was below 10 nM; in experiment [2] (setting [15]), 50 to 500 nM; in experiment [3] (setting [17]), below 10 nM; in experiment [4] (setting [19]) it was 10 to 50 nM. In addition, the greatest degradation seen (Dmax) was above 70% in experiment [1] (setting [14]), 30 to 70% in experiment [2] (setting [16]), above 70% in experiment [3] (setting [18]) and 30 to 70% in experiment [4] (setting [20]).
On to `CCCS(=O)(=O)Nc1cccc(-c2nc(C(C)(C)C)sc2-c2ccnc(Nc3cnn(CC4CCN(CC5CCN(c6ccc7c(=O)n(C8CCC(=O)NC8=O)ccc7c6)CC5)CC4)c3)n2)c1F` (racemic) [Compound 83, Rac-N-{3-[2-tert-butyl-5-(2-{[1-({1-[(1-{2-[(3R)-2,6-dioxopiperidin-3-yl]-1-oxo-1,2-dihydroisoquinolin-6-yl}piperidin-4-yl)methyl]piperidin-4-yl}methyl)-1H-pyrazol-4-yl]amino}pyrimidin-4-yl)-1,3-thiazol-4-yl]-2-fluorophenyl}propane-1-sulfonamide], for which the DC50 in experiment [1] (setting [5]) was 50 to 500 nM; in experiment [2] (setting [7]) it was 50 to 500 nM; in experiment [3] (setting [9]) it was below 10 nM; in experiment [4] (setting [11]), 50 to 500 nM. The Dmax in experiment [1] (setting [6]) was below 30%; in experiment [2] (setting [8]) it was below 30%; in experiment [3] (setting [10]), above 70%; in experiment [4] (setting [12]), below 30%.
In the case of `O=C1CC[C@H](c2ccc(N3CCC(CN4CCN(c5ccc(-n6cc(-c7cc(Cl)cc(NS(=O)(=O)N8CCCC8)c7F)c(-c7ccncc7)n6)nc5)CC4)CC3)cc2)C(=O)N1` [Compound 286, N-{5-chloro-3-[1-(5-{4-[(1-{4-[(3R)-2,6-dioxopiperidin-3-yl]phenyl}piperidin-4-yl)methyl]piperazin-1-yl}pyridin-2-yl)-3-(pyridin-4-yl)-1H-pyrazol-4-yl]-2-fluorophenyl}pyrrolidine-1-sulfonamide], the half-maximal degradation concentration (DC50) in experiment [1] (setting [13]) was below 10 nM; in experiment [2] (setting [15]), 10 to 50 nM; in experiment [3] (setting [17]) it was below 10 nM; in experiment [4] (setting [19]), below 10 nM. The Dmax in experiment [1] (setting [14]) is above 70%; in experiment [2] (setting [16]), 30 to 70%; in experiment [3] (setting [18]), above 70%; in experiment [4] (setting [20]), above 70%.
For `CCCS(=O)(=O)Nc1cccc(-c2cn(-c3ccc(C4CCN(CC5CCN(c6ccc([C@@H]7CCC(=O)NC7=O)cc6)CC5)CC4)cc3)nc2-c2ccncc2)c1F` [Compound 15, N-{3-[1-(4-{1-[(1-{4-[(3S)-2,6-dioxopiperidin-3-yl]phenyl}piperidin-4-yl)methyl]piperidin-4-yl}phenyl)-3-(pyridin-4-yl)-1H-pyrazol-4-yl]-2-fluorophenyl}propane-1-sulfonamide], the DC50 in experiment [1] (setting [5]) was 10 to 50 nM; in experiment [2] (setting [7]), above 500 nM; in experiment [3] (setting [9]), 10 to 50 nM; in experiment [4] (setting [11]) it was above 500 nM. Moreover, the maximal degradation (Dmax) in experiment [1] (setting [6]) was 30 to 70%; in experiment [2] (setting [8]), below 30%; in experiment [3] (setting [10]), above 70%; in experiment [4] (setting [12]), 30 to 70%.
With `O=C1CC[C@H](c2ccc(N3CCC(CN4CCN(c5ccc(-n6cc(-c7cc(Cl)cc(NS(=O)(=O)N8CC(F)C8)c7F)c(-c7ccncc7)n6)cc5)CC4)CC3)cc2)C(=O)N1` [Compound 333, N-{5-chloro-3-[1-(4-{4-[(1-{4-[(3R)-2,6-dioxopiperidin-3-yl]phenyl}piperidin-4-yl)methyl]piperazin-1-yl}phenyl)-3-(pyridin-4-yl)-1H-pyrazol-4-yl]-2-fluorophenyl}-3-fluoroazetidine-1-sulfonamide], the half-maximal degradation concentration (DC50) in experiment [1] (setting [13]), in experiment [2] (setting [15]), in experiment [3] (setting [17]) and in experiment [4] (setting [19]) was below 10 nM each time. Further, the maximal degradation (Dmax) in experiment [1] (setting [14]) was above 70%; in experiment [2] (setting [16]), 30 to 70%; in experiment [3] (setting [18]), above 70%; in experiment [4] (setting [20]), 30 to 70%.
